These results are taken from PMC8998031, “A Boronated Derivative of Temozolomide Showing Enhanced Efficacy in Boron Neutron Capture Therapy of Glioblastoma” (Cells, 2022).

Series [1] concerns HS683 cells. Kind of series: Clonogenic cell survival assay without BNCT. Format: cell-based, Human.
Series [2] relates to HS683 cells. Kind of series: CCK8 cell proliferation assay. Format: cell-based, Human. To be noted: read-out: IC50 (cell viability, CCK8). How it is done:
Cell proliferation was measured with a CCK8 assay following the manufacturer’s protocol (Dojindo Molecular Technologies, Inc., Kumamoto, Japan). The IC50 was calculated using Prism software using the following algorithm: Cell Viability=100/1+10^(LogIC50−Concentration)×Hillslope
For orientation: Tetrazolium assays rely on reduction of a dye to a coloured formazan, in cell work by metabolically active cells.

Series [3] relates to HS683 cells. Kind of series: Boron uptake in HS683 cells (ICP-AES). Format: cell-based, Human. To be noted: series of concentrations, 12 h. How it is done:
(§1) Human GBM cells U87MG, U251, and HS683 and endothelial cell HUV-EC were obtained from the National Infrastructure of Cell Line Resource in Beijing, China. Cell lines were authenticated at the National Infrastructure of Cell Line Resource, Beijing, China. GBM cells were cultured in a DMEM medium containing 10% fetal bovine serum and 1% penicillin/streptomycin at 5% CO2 and 37 °C. HUV-EC cells were cultured in complete culture medium (Procell Life Science & Technology Co., Ltd., Wuhan, China). Cells were tested mycoplasma free using a Mycoplasma Test Kit (Cellorlab, China). All materials for cell culture were purchased from Gibco Invitrogen (Grand Island, NY, USA) unless otherwise noted.
(§2) TMZB (molecular weight, 412.21) and BPA (209.01; obtained from HEC Pharm, Dongguan, China) were made into 0.0–1.0 mg/g aqueous solutions. GBM cells and HUV-EC cells were treated with different concentrations of TMZB or BPA solutions. The drug-containing medium was removed 12 h later. The biodistribution of boron in TMZB- or BPA-treated mice was measured at the timepoint for neutron irradiation, i.e., 2 h after drug injection. Eight nude mice in each group were injected with 500 mg/kg of BPA, TMZ, or TMZB through the tail vein of the nude mice, in a 3,5-tetrazine-8-methoxy-4-phenylboronic acid-ethyl ester solution. […]

Series [4] can be described thus: In vivo boron distribution in GBM mouse model (ICP-AES). Also noted: species or system nude mice. The note with it: 50 mg 10B/kg. Here is the method: (§3) Single-cell suspension with HS683 cells was prepared at 2 × 10^7 cells/mL. Nude mice were anesthetized with an intraperitoneal injection of tribromoethanol at a dose of 150 mg/kg and positioned in a stereotaxic instrument. After disinfection with 75% alcohol, the scalp was cut open with a scalpel, the bregma point was selected, and a hole was made in the mouse skull using a 1 mm cranial drill. Then, 5 μL of cell suspension was taken using a micro-injector, which was then fixed on the brain with a needle depth at 3.0 mm using a stereotaxic instrument. Three minutes later, the micro-injector was lifted by 0.5 mm to make rooms for the injection of cells at 1 μL/min. After removing the needle, the drill hole in the mice skull was then filled with bone wax, the skin incision was sutured, and the wound was disinfected with iodophor. The GBM model was established approximately 28 days after cell injection.
TMZB (molecular weight, 412.21) and BPA (209.01; obtained from HEC Pharm, Dongguan, China) were made into 0.0–1.0 mg/g aqueous solutions. GBM cells and HUV-EC cells were treated with different concentrations of TMZB or BPA solutions. The drug-containing medium was removed 12 h later. […] Eight nude mice in each group were injected with 500 mg/kg of BPA, TMZ, or TMZB through the tail vein of the nude mice, in a 3,5-tetrazine-8-methoxy-4-phenylboronic acid-ethyl ester solution. […] Cells or tissues were digested with concentrated nitric acid for the analysis of boron concentration via ICP-AES.

Another series concerns HS683 GBM mouse model. Kind of series: In vivo BNCT test, PET/CT imaging with 18F-FDG. Also noted: species or system nude mice. How it is done:
as §3
PET/CT imaging with 1.5 uCi/g ^18F-FDG was performed for all the mice anesthetized with 2% isoflurane at 25 °C before BNCT. Mice were anesthetized with an intraperitoneal injection of tribromoethanol at a dose of 150 mg/kg. The mice were then injected i.v. with 50 mg ^10B/kg of BPA (5% fructose solution) or the TMZB solution at 50 mg ^10B/kg or TMZ at 600 mg/kg through the tail vein. Then, 90 min later, mice were fixed in the mold and anesthetized for BNCT. Mice heads were treated with 2 kw of neutron fluence for 2 h each time and 4 times for each mouse with 2 days interval in between, to achieve a total neutron fluence of 16.5 ± 0.3 × 10^11 n/cm^2. Boron compounds were injected prior to each of the radiation fractions. PET/CT imaging was performed again 31 days after BNCT. Three-dimensional reconstructions of the PET/CT images were performed using AMIDE (Stanford University, Stanford, CA, USA). ROI, SUV values, and tumor volume were then analyzed.

Series [5] concerns HS683 cells. Kind of series: Clonogenic cell survival assay with BNCT (neutron irradiation). Format: cell-based, Human. To be noted: total neutron fluence 2.4 ± 0.3 × 10^11 n/cm^2. Here is the method:
HS683 cells were prepared in a 200 μL centrifuge tube and treated with BPA or TMZB at gradient concentrations in 0.0–1.0 μg/mL for 30 min. Cells were irradiated with epithermal neutrons for approximately 30 min to achieve total neutron fluence at 2.4 ± 0.3 × 10^11 n/cm^2. After radiation, the drug-containing medium was removed, and cells were incubated in fresh medium for 12 h. A certain number of cells in a single-cell suspension were seeded into 6-well plates to grow colonies. After 2 weeks of incubation, colonies were fixed with 70% ethanol at room temperature for 10 min, stained with 0.1% crystal violet, and then dried overnight. Colonies with more than 50 cells were scored as clonogenic survivors under a bright field microscope.

For another series, the system named is U251 cells. Kind of series: Boron uptake in U251 cells (ICP-AES). Format: cell-based, Human. To be noted: exposure of 1.99 mM BPA, 12 h. How it is done:
as §1, §2

As usually defined, the pIC50 is the IC50 on a negative log10 scale, so that one unit is a factor of ten.

SMILES strings stand for the structures. pIC50: −log10 of the molar value.

Turning to `N[C@@H](Cc1ccc(B(O)O)cc1)C(=O)O` [BPA, boronated phenylalanine], the results for the pIC50 in the series with HS683 cells [1] and with HS683 cells [2] (without BNCT) were 2.64 and 2.95, respectively.
On to `N[C@@H](Cc1ccc([10B](O)O)cc1)C(=O)O` [BPA, boronated phenylalanine], for which the “boron uptake (in words)” value with HS683 cells [3] is given as “low uptake”. Also, the “tissue of main boron accumulation” value in series [4] (2 h after administration) is listed as “mainly accumulates in the kidney”. Also, the “boron concentration in mice tumors” value in series [4] (2 h after i.v. administration) came out at 16.93 ± 9.75 μg B/g; in series [4] (6 h after i.v. administration) it was 5.07 ± 1.43 μg B/g. The “tumor-to-blood ratio (T/B) of boron concentrations” value in series [4] (GBM mouse model) came out at 2.26 ± 1.56. Also, the “tumor-to-normal brain ratio (T/N) of boron concentrations” value in series [4] (GBM mouse model) turned out to be 2.61 ± 1.98. The “SUV max after BNCT” value with HS683 GBM mouse model (31 days after BNCT, 50 mg 10B/kg, 18F-FDG PET/CT) is “significantly reduced”. Besides, the “18F-FDG uptake in tumors after BNCT” value with HS683 GBM mouse model (31 days after BNCT, compared with TMZ-treated group) is “significantly lower than that in the TMZ-treated group”. Further, the “tumor volume decrease (tumor shrinkage) after BNCT” value in the series on HS683 GBM mouse model (31 days after neutron irradiation, 50 mg 10B/kg i.v., total neutron fluence 16.5 ± 0.3 × 10^11 n/cm^2, PET/CT) is 35.2%. Besides, the “clonogenic cell death after BNCT” value in the series with HS683 cells [5] (HS683, 0.239 mM BPA) is recorded as 63.7% ± 6.3. For the same compound, the boron uptake in the series on U251 cells is listed as 0.126 μg/10^6 cells.
Regarding `Cn1nnc2c(C(N)=O)ncn2c1=O` [TMZ, temozolomide], the pIC50 was 3.67 in the series on HS683 cells [1] (Homo sapiens, Hs 683) and 3.55 in the series on HS683 cells [2] (Homo sapiens, Hs 683, without BNCT). The “clonogenic cell death after BNCT” value in the series on HS683 cells [5] (HS683, 0.258 mM TMZ) is listed as 47.9% ± 6.6.
